From patent US11382907B2, “Methods and compositions for treating aging-associated impairments using CCR3-inhibitors” (Alkahest, Inc., priority 2017, dated 2022)
Entries after “also recorded” stand apart in the source; their conditions may differ.

Columns and labels:
[1] = biological target: T1, CCR3 (Mus musculus, UniProt P51678); test: cell line receptor binding (Ki for the compound in mice); details: determined by cell line receptor binding
T1 construct: host or cells: unnamed cell line
T1 sequence (P51678 1-359): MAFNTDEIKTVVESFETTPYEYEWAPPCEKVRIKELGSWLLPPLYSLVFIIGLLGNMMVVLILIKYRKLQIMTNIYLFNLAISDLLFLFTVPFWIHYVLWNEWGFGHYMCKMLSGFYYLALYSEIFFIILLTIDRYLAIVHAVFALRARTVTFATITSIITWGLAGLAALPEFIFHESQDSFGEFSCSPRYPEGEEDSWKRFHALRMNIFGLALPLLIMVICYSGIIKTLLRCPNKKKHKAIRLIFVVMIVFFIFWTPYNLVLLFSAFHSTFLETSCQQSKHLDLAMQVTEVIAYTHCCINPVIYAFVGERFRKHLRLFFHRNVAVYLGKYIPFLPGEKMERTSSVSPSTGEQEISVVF

[2] = tested on: aged C57Bl/6 mice; test: Y-maze test in aged mice; assay type: in vivo
Method: A large Y-maze test assesses short-term memory of the familiarity of a specific context. Mice are brought to the experimental room for at least 30 min of acclimation to the experimental room conditions (dim lighting) prior to testing. For the initial training trial, the mouse is placed at the end of one arm of a large Y-maze designated “start arm” (arm length: 15 inches). The third arm of the maze is blocked off, allowing the mouse to explore two of the three arms freely (“start arm” and “familiar arm”) for 5 min. Each arm contains spatial cues. One hour later, the mouse is placed back into the maze in the “start arm” and allowed to explore all three arms with the third arm unblocked (“novel arm”). Movements in and out of each arm are tracked using automated tracking software (CleverSys). Testing is performed under dim lighting, and the apparatus is cleaned with 70% ethanol between trials.
(§1) Two-month-old or 18-month-old C57Bl/6 mice were dosed with either IgG antibody control by IP injection or Compound 1 subcutaneously by Alzet osmotic pump for either 2 or 4 weeks. During the last week of treatment, mice were subjected to behavior testing prior to perfusion on the last day of treatment. All mice received 5 consecutive days of BrdU injection at 150 mg/kg IP immediately prior to treatment start.
as §1, with “Three-month-old” for “Two-month-old”, “16.5-month-old” for “18-month-old”, “vehicle” for “IgG antibody”, “control” for “control by IP injection”, “for” for “for either 2 or”
23-month-old C57Bl/6 mice were dosed with either vehicle control or Compound 1 by oral gavage twice daily for 19 days. After 11 days of treatment, mice were subjected to Y maze testing.
(§2) 23-month-old C57Bl/6 mice were dosed with either vehicle control or Compound 1 subcutaneously twice daily for 21 days. Three weeks later, mice were subjected to behavior testing, and sacrificed the day following the last behavior test.

[3] = tested on: aged C57Bl/6 mice; test: Barnes maze test in aged mice; assay type: in vivo
From the text: A modified Barnes maze was used to assess spatial working/episodic like learning and memory. The Barnes maze apparatus consists of a 122 cm diameter circular platform with 40 escape holes, each with a diameter of 5 cm placed along three rings of varying distances from the center of the platform. An escape box is attached to one of the holes and all holes are left uncovered. Bright lights and a fan are trained on the maze to provide adverse stimuli to encourage escape. Visual cues are placed on all four sides of the maze. Mice are given a series of 4 or 5 trials with inter-trial intervals of approximately 10 min, and the maximum duration of each trial is 90 or 120 sec. For each trial, mice are placed in the center of the maze. After 10 seconds, mice are allowed to explore, and the trial is ended if the mouse has found and entered an escape box before the end of the trial. Mice that cannot find the escape box are led to it and allowed to enter and given 30 sec to remain before being returned to its home cage. Training is done for 4 days. Data that is recorded and analyzed include velocity, escape latency, and distance moved.
Mice are divided into groups of 4-5 mice each, with balanced treatment groups. For example, Group 1 mice are run for 4 trials, then Group 2 mice are run for 4 trials, and so on until all groups finish testing. 70% ethanol is used to clean the arenas between trials.
as §1, with “Three-month-old” for “Two-month-old”, “16.5-month-old” for “18-month-old”, “vehicle” for “IgG antibody”, “control” for “control by IP injection”, “for” for “for either 2 or”
as §2

[4] = tested on: CD68+ activated microglia; test: IHC of CD68+ activated microglia in hippocampus of mice given daily LPS; assay type: in vivo, C57Bl/6 mice; details: 3-month-old mice, daily LPS IP 7 weeks, 30 mg/kg PO BID 4 weeks
From the text: Mice were taken down on the day following the end of behavior testing. Anesthesia was induced by 2,2,2-tribromoethanol and mice were subsequently perfused with 0.9% saline trans-cardially. The brains were dissected and cut sagitally in two even halves. One half was snap frozen for later use in dry ice, and the other was fixed in 4% paraformaldehyde in PBS for use in immunohistochemistry. After two days of fixation, the hemibrains were transferred to a 30% sucrose in PBS solution and changed after two days. Hemibrains were sectioned at 30 um on a microtome at −22° C. Brain sections were stored in cryoprotectant media at −20° C. until needed for staining. Blocking was done on free floating sections in the appropriate serum at 10% serum in PBST 0.5%. Primary antibodies were incubated overnight at 4 C. For light microscopy, the following antibodies were used in the given concentrations: DCX, 1:200, Santa Cruz BioTech, CD68, 1:1000. AbD Serotec. Secondary biotinylated antibodies were applied the next day at a concentration of 1:300. Staining visualization was achieved by reaction with the ABC kit (Vector) and diaminobenzidine (Sigma). Dehydration of the mounted slides was achieved using ethanol and xylene dips. Images were acquired on a Leica light microscope at 5× magnification. […]

[5] = 23-month-old mice, 30 mg/kg SQ BID 21 days, tested three weeks later
[6] = 23-month-old mice, 30 mg/kg oral gavage BID, tested after 11 days
[7] = 16.5-month-old mice, 4-week dosing by pump

- Ki [1]: 124 nM
Compound: Cc1cc(C(=O)N(C)C)cc(NC(=O)[C@H]2CCC(=O)N2C2CCN(Cc3ccc(Cl)c(C)c3)CC2)n1 [Compound 1]
- cognitive performance in the cued Y-maze ([2]; 16.5-month-old mice, four-week subcutaneous dosing by pump): improved cognitive performance
- performance in the cued Y-maze ([2]; 18-month-old mice, low or high infusion for 2 or 4 weeks): improvement in the cued Y-maze
- Y-maze duration of time spent in the novel arm [2, 5]: exhibited intact memory for the novel arm
- Y-maze number of visits to the novel arm [2, 5]: exhibited intact memory for the novel arm
- memory in the Y-maze [2, 5]: significantly improved memory
- velocity during the Y-maze test [2, 5]: significantly increased the velocity
- Y-maze number of visits to the novel arm [2, 6]: exhibited intact memory for the novel arm
- distance travelled during the Y-maze test [2, 6]: significantly increased the distance travelled
- memory in the Y-maze [2, 6]: significantly improved memory
- Barnes maze average of the latency for day 4 trials [3, 7]: Trends for improved memory
- Barnes maze difference between the latencies of trials 13 and 16 [3, 7]: Trends for improved memory
- performance in the Barnes maze [3, 7]: trended towards improved performance
- Barnes Maze spatial memory performance [3, 5]: performed significantly better
- velocity during the Barnes Maze test [3, 5]: exhibited increased velocity
- CD68+ immunoreactivity (activated microglia) in hippocampus [4]: dramatically decreased CD68+ immunoreactivity; also recorded: robust trend towards decrease
